From a compilation of properties of binary mixtures (doi:10.1007/s10953-010-9562-5)

Experiment: xn = mol fraction of the nth substance listed
Conditions: 101 kPa, x1 = 1

CC1COC(=O)O1 (stereo unspecified) + CCCC[N+]1(C)CCCC1.O=S(=O)([N-]S(=O)(=O)C(F)(F)F)C(F)(F)F
electrical conductivity (263.15 K): 0.001 S/m
electrical conductivity (268.15 K): 0.001 S/m
electrical conductivity (273.15 K): 0.001 S/m
electrical conductivity (278.15 K): 0.001 S/m
electrical conductivity (283.15 K): 0.001 S/m
electrical conductivity (288.15 K): 0.001 S/m
electrical conductivity (298.15 K): 0.002 S/m
viscosity (298.15 K): 2.52 mPa·s
electrical conductivity (308.15 K): 0.002 S/m
viscosity (308.15 K): 2.14 mPa·s
viscosity (318.15 K): 1.85 mPa·s
